Like-named read-outs stand apart in the source and are kept apart here.
Columns and labels:
mouse GPCRs [1] = assay: DAS-ELISA evaluation of coumarin derivatives on GPCRs (inhibition/activation); assay type: biochemical; details: for IC50: concentration achieving 50% inhibition of the GPCRs' standard at 10 ng/L; for IC50 / EC50: mean of two independent experiments ± SD; for EC50: concentration achieving 50% activation of the GPCRs' standard at 10 ng/L; for IC50(nM) (% INHIBITION): % inhibition (inhibition rate): value in parentheses beside the > IC50 bound, daphnetin: at 10 ng/L; for EC50(nM) (% Activation): % Activation: value in parentheses beside the > EC50 bound; for GPCR activation potency (in words) / GPCRs-inhibitory activity (in words): DAS-ELISA
Method: All chemicals and reagents used in the study were commercially available and used as received. Thin-layer chromatography (TLC) and column chromatography (300–400 mesh) were achieved using instruments from Qingdao Makall Group Co., Ltd. (Qingdao, China). ^1H NMR and ^13C NMR spectra were recorded on a Bruker DRX-500 (^1H/^13C, 500 MHz/125 MHz) spectrometer (Bruker, Bremerhaven, Germany) or a JEOL 400YH (^1H/^13C, 400 MHz/100 MHz) and chemical shifts were given in δ with the TMS as an internal reference. The ESI-MS spectroscopy was measured on an Advantage Max LCQ Thermo-Finnigan mass spectrometer. The ELISA kit was purchased from Shanghai Fusheng Industry Co., Ltd. (Shanghai, China), and the standard in the kit was Class B GPCRs.
All the synthesized coumarin derivatives were dissolved in 500 μL of DMSO, and then diluted to 1 mL by distilled water to get 1 mg/mL of stock solution. Finally, the stock solution was diluted to 1000 μg/L, 10 μg/L, 0.1 μg/L, and 0.001 μg/L in turn and stored in a refrigerator at 4 ℃ for reserve.
The inhibitory/activation activities of all of the synthesized coumarin derivatives on GPCRs were evaluated through incubation using mouse GPCRs provided by the ELISA kit (Shanghai Fusheng Industrial Co., Ltd. Shanghai, China). Other components of the kit included a water solution (30 times concentrated), a HRP conjunction reagent, a sample diluent, a standard diluent, standard, a chromogenic reagent A, a chromogenic reagent B, and a stop solution.
The 15 μL of stock solution and 15 μL of diluted standard solution were thoroughly mixed and incubated at 37 ℃ for 10 mins to prepare a reaction solution. The assay was conducted according to the kit protocol, that is, by adding the 25 μL of reaction solution to a 96-well enzyme-labeled plate containing solid phase anti-GPCRs antibodies. Then the plate was incubated for 30 mins at 37 ℃. Then, 25 μL of Chromogener A and 25 μL of Chromogener B were then added to react. Finally, 25 μL of the termination solution was added to each well to terminate the reaction and the mixture was fully mixed. Derivatives were tested in four different concentrations: 10 ng/L, 1 ng/L, […], and 10 μg/L. A diluent was prepared, dissolved and diluted with the other components of the kit according to the instructions in the kit, and a termination solution was added to the reaction. Then, the OD value was obtained by a microplate reader in 15 mins. All the derivatives were set into two independent experimental groups, and the inhibition of GCPRs, which was expressed as a percentage, was based on these groups.
Inhibition rate = [OD(positive) − OD(test compound)]/[OD(positive) − OD(blank)] ∗ 100%.
IC50/EC50 were obtained from Modified Karber formula [66] as the following: lgρ=Xm−IP−3−Pm−Pn/4
ρ: Concentration of compounds; Xm: Maximum dose; I = (Minimum inhibition rate)/Adjacent dose.
P: Sum of inhibition rates; Pm: Maximum inhibition rate; Pn: Minimum inhibition rate.
All values are the mean of two independent experiments ± SD.

mouse GPCRs [2] = test system: mouse GPCRs; design: method as in PMID 33142412; details: earlier work shown in Figure 2; cited from earlier work

| Molecule | IC50 (mouse GPCRs [1]) [nM] | EC50 (mouse GPCRs [1]) [nM] | also measured |
| --- | --- | --- | --- |
| Cc1cc(=O)oc2c(O)c(O)ccc12 [4a, reference compound] | – | 2.65 ± 0.25 | – |
| O=c1cc(-c2ccc(F)cc2)c2ccc(O)c(O)c2o1 [Derivative 1, 4-(4-Fluorophenyl)-7,8-dihydroxy-2 H-chromen-2-one] | – | 0.56 ± 0.02 | – |
| O=c1cc(C(F)F)c2ccc(O)c(O)c2o1 [Derivative 2, 4-(Difluoromethyl)-7,8-dihydroxy-2H-chromen-2-one] | – | > 43.8 | EC50(nM) (% Activation): % Activation (mouse GPCRs [1]): 39.82% |
| CCCc1cc(=O)oc2c(O)c(O)ccc12 [Derivative 5, 7,8-Dihydroxy-4-propyl-2H-chromen-2-one] | 3.77 ± 0.58 | – | GPCR activation potency (in words) (mouse GPCRs [1]): completely lost their GPCRs-activation potency |
| CC(=O)Oc1ccc2c(CCl)cc(=O)oc2c1OC(C)=O [Derivative 7, 4-(Chloromethyl)-2-oxo-2H-chromene-7,8-diyl diacetate] | 0.02 ± 0.01 | – | GPCR activation potency (in words) (mouse GPCRs [1]): no GPCR activation potency |
| CCC(=O)Oc1ccc2c(CCl)cc(=O)oc2c1OC(=O)CC [Derivative 8, 4-(Chloromethyl)-2-oxo-2H-chromene-7,8-diyl dipropionate] | 6.86 ± 0.04 | – | GPCR activation potency (in words) (mouse GPCRs [1]): no GPCR activation potency |
| Cc1cc(=O)oc2cc(O)ccc12 [Derivative 9, 7-Hydroxy-4-methyl-2H-chromen-2-one] | 1.25 | 1.25 ± 0.89 | GPCRs-inhibitory activity (in words) (mouse GPCRs [1]): no GPCRs-inhibitory activity |
| O=c1cc(C(F)(F)F)c2ccc(O)cc2o1 [Derivative 13, 7-Hydroxy-4-(trifluoromethyl)-2H-chromen-2-one] | 7.75 ± 7.23 | – | – |
| Cc1c(Cl)c(=O)oc2cc(O)ccc12 [Derivative 14, 3-Chloro-7-hydroxy-4-methyl-2H-chromen-2-one] | – | 0.03 ± 0.02 | – |
| Cc1c(Cc2ccccc2)c(=O)oc2cc(O)ccc12 [Derivative 15, 3-Benzyl-7-hydroxy-4-methyl-2H-chromen-2-one] | 3.6 | 3.6 ± 0.11 | – |
| Cc1c(F)c(=O)oc2cc(O)ccc12 [Derivative 16, 3-Fluoro-7-hydroxy-4-methyl-2H-chromen-2-one] | – | 0.24 ± 0.21 | – |
| Cc1c(C#N)c(=O)oc2cc(O)ccc12 [Derivative 17, 7-Hydroxy-4-methyl-2-oxo-2H-chromene-3-carbonitrile] | – | 0.03 ± 0.02 | – |
| CCc1cc(=O)oc2cc(O)ccc12 [Derivative 18, 4-Ethyl-7-hydroxy-2H-chromen-2-one] | – | 0.03 ± 0.01 | GPCRs-inhibitory activity (in words) (mouse GPCRs [1]): no GPCRs-inhibitory activity |
| O=c1cc(CCl)c2ccc(O)cc2o1 [Derivative 19, 4-(Chloromethyl)-7-hydroxy-2H-chromen-2-one] | – | 4.22 ± 3.49 | GPCRs-inhibitory activity (in words) (mouse GPCRs [1]): no GPCRs-inhibitory activity |
| O=c1cc(-c2ccccc2)c2ccc(O)cc2o1 [Derivative 20, 7-Hydroxy-4-phenyl-2H-chromen-2-one] | – | > 42 | EC50(nM) (% Activation): % Activation (mouse GPCRs [1]): 34.41% |
| Cc1cc(=O)oc2cc(Oc3ccnc(Cl)n3)ccc12 [Derivative 21, 7–((2–chloropyrimidin–4–yl)oxy)–4–methyl–2H–chromen–2–one] | 0.02 | 0.02 ± 0.01 | – |
| CCC(=O)Oc1ccc2c(C)c(Cc3ccccc3)c(=O)oc2c1 [Derivative 25, 3-Benzyl-4-methyl-2-oxo-2H-chromen-7-yl propionate] | – | 12 ± 9.47 | – |

Second part, led by results:

| IC50 (mouse GPCRs [1]) [nM] | EC50 (mouse GPCRs [1]) [nM] | Molecule | also measured |
| --- | --- | --- | --- |
| 0.76 ± 0.7 | – | 4-Benzyl-7-ethoxy-4-methyl-2H-chromen-2-one [Derivative 23] | – |
| > 10 | – | O=c1ccc2ccc(O)c(O)c2o1 [Daphnetin, daphnetin, reference compound] | EC50 (mouse GPCRs [2]): > 10 nM; Inhibition rate (in Figure 2) (mouse GPCRs [2]): 49.43%; IC50(nM) (% INHIBITION): % inhibition (inhibition rate) (mouse GPCRs [1]): 49.43% |
| – | > 43.8 | O=c1cc(-c2ccccc2)c2ccc(O)c(O)c2o1 [Derivative 3, 7,8-Dihydroxy-4-phenyl-2H-chromen-2-one] | EC50(nM) (% Activation): % Activation (mouse GPCRs [1]): 35.75% |
| 0.15 ± 0.01 | – | CCc1cc(=O)oc2c(O)c(O)ccc12 [Derivative 4, 4-Ethyl-7,8-dihydroxy-2H-chromen-2-one] | GPCR activation potency (in words) (mouse GPCRs [1]): completely lost their GPCRs-activation potency |
| > 48.5 | – | COc1cc(=O)oc2cc(O)ccc12 [Derivative 10, 7-Hydroxy-4-methoxy-2H-chromen-2-one] | IC50(nM) (% INHIBITION): % inhibition (inhibition rate) (mouse GPCRs [1]): 33.58% |
| – | 1.28 ± 1.07 | CCc1c(C)c2ccc(O)cc2oc1=O [Derivative 11, 3-Ethyl-7-hydroxy-4-methyl-2H-chromen-2-one] | – |
| – | 1.07 ± 0.33 | Cc1c(C)c2ccc(O)cc2oc1=O [Derivative 12, 7-Hydroxy-3,4-dimethyl-2H-chromen-2-one] | – |
| 9.67 ± 2.59 | – | COc1ccc2c(C)c(Cc3ccccc3)c(=O)oc2c1 [Derivative 22, 3-Benzyl-7-methoxy-4-methyl-2H-chromen-2-one] | – |
| – | > 35.7 | CC(=O)Oc1ccc2c(C)c(Cc3ccccc3)c(=O)oc2c1 [Derivative 24, 3-Benzyl-4-methyl-2-oxo-2H-chromen-7-yl acetate] | EC50(nM) (% Activation): % Activation (mouse GPCRs [1]): 32.82% |

Source: article PMC9147790, “Synthesis of Coumarin Derivatives: A New Class of Coumarin-Based G Protein-Coupled Receptor Activators and Inhibitors” (Polymers, 2022)
